Measured values from PMC12055039 (Organic & biomolecular chemistry, 2024).
Where two headings read alike, the source gives them in different places.

Experiments:
P. falciparum 3D7 = experiment: Antiparasitic screening against P. falciparum 3D7; assay type: cell-based; conditions: read-out: P. falciparum 3D7 EC50; mean ± standard error, 3 biological replicates
L. amazonensis [1] = experiment: Antiparasitic screening against L. amazonensis; assay type: cell-based; conditions: read-out: L. amazonensis EC50; mean ± standard error, 3 biological replicates
T. brucei [2] = experiment: Antiparasitic screening against T. brucei; assay type: cell-based; conditions: read-out: T. brucei EC50; mean ± standard error, 3 biological replicates
L. amazonensis [3] = conditions: read-out: L. amazonensis EC50; 6/5-spiroindimicins; ref 4b; cited from earlier work
[4] = Cytotoxicity against HepG2 cells; conditions: human
T. brucei [5] = conditions: read-out: EC50 (T. brucei); Phase III candidate for trypanosomiasis; cited from earlier work

Row | Compound | EC50 (P. falciparum 3D7) | EC50 (L. amazonensis [1]) | EC50 (T. brucei [2]) | EC50 (L. amazonensis [3]) | CC50 [4] | EC50 (T. brucei [5])
1 | spiroindimicin G [Compound 7] | 7.6 ± 0.47 µM | 8.1 ± 0.5 µM | 0.65 ± 0.14 µM | – | – | –
2 | COC(=O)c1[nH]c(C(=O)OC)c2c1-c1c[nH]c3ccc(Cl)c(c13)[C@@]21C=Nc2ccc(Cl)cc21 [Compound 1, spiroindimicin A] | – | – | – | 1.3 µM | – | –
3 | N-PMB spiroindimicin C [Compound 74] | 3.7 ± 0.35 µM | > 10 µM | 1.2 ± 0.03 µM | – | – | –
4 | COC(=O)c1[nH]cc2c1[C@@]1(CN(C)c3ccccc31)c1[nH]c3ccc(Cl)cc3c1-2 (racemic) [Compound 6, spiroindimicin F] | 9 ± 0.97 µM | 9.9 ± 1.2 µM | 4 ± 0.2 µM | – | – | –
5 | COC(=O)c1[nH]c(C(=O)OC)c2c1-c1c([nH]c3ccc(Cl)cc13)[C@@]21CN(C)c2ccc(Cl)cc21 (racemic) [Compound 4, spiroindimicin D] | 5.6 ± 0.22 µM | 7.7 ± 0.23 µM | 3.4 ± 0.21 µM | – | – | –
6 | C[C@H]1CCC/C=C/[C@@H]2C[C@H](O)C[C@H]2[C@H](O)/C=C/C(=O)O1 [brefeldin A] | – | – | – | – | 0.064 ± 0.0045 µM | –
7 | CC1(C)OB(O)c2cc(NC(=O)c3ccc(F)cc3C(F)(F)F)ccc21 [acoziborole] | – | – | – | – | – | 0.6 µM
8 | COC(=O)c1[nH]cc2c1[C@@]1(CN(C)c3ccc(Cl)cc31)c1[nH]c3ccccc3c1-2 (racemic) [Compound 5, spiroindimicin E] | 4.8 ± 0.51 µM | 9.3 ± 1.7 µM | 4.4 ± 0.32 µM | – | – | –
9 | COC(=O)c1[nH]cc2c1[C@]1(CN(C)c3ccc(Cl)cc31)c1[nH]c3ccc(Cl)cc3c1-2 (racemic) [Compound 2, spiroindimicin B] | 3 ± 0.2 µM | 8 ± 0.49 µM | 3 ± 0.23 µM | – | – | –
10 | COC(=O)c1[nH]cc2c1[C@]1(CNc3ccc(Cl)cc31)c1[nH]c3ccc(Cl)cc3c1-2 (racemic) [Compound 3, spiroindimicin C] | 7.1 ± 0.58 µM | > 10 µM | 13 ± 0.98 µM | – | – | –
